Several values for one entry are separate records, joined by “and”; a condition that tells them apart may be missing. Equal entries are not always repeated.
Tests used:
Assay type in all cases: physicochemical
[1] = Monatin stability in lemon-lime beverage with or without EMIQ, UV irradiation (Example 4)
Protocol: (§1) The polyphenol enzymatically-modified isoquercitrin (EMIQ) was used to stabilize monatin (31 mg/L) in a lemon lime carbonated beverage formulation contained in either a regular (clear, colorless) PET bottle or a dark-colored PET bottle. The level of EMIQ in the samples was 7.5 PPM. A control formulation was used that contained no EMIQ. The samples were exposed to UV light or ambient indoor laboratory fluorescent lighting for up to 72 hours. UV light was administered in a UV chamber at 40° C. with approximately 400 Langley per 6 hours of exposure. The results listed below indicate that the monatin was very unstable in the control formulations with only 1.4% monatin remaining after 24 hours exposure to UV light. EMIQ provided protection from degradation of the monatin. When packaged in a dark-colored PET bottle approximately 89% monatin remained in the formulation after exposure to UV light for 24 hours. When exposed to ambient indoor laboratory lighting for 72 hours over 90% monatin remained in both clear and dark PET bottles containing the EMIQ polyphenol. All analyses were done by HPLC/MS.

[2] = Odor analysis of UV and light exposed monatin samples by 6 panelists; parameters: key to Odor analysis: (+) = no odor or minor odor; (−) = distinct or unpleasant odor; settings: for Odor analysis: 30 PPM in lemon lime matrix pH 3.35, panelists 1-6
Protocol: A survey of odor and visual analysis of the UV and light exposed samples of the monatin samples was conducted by 6 panelists. Samples for analysis were solution of monatin in a lemon lime matrix without flavor at pH 3.35 (30 PPM monatin) exposed to visible for three days or UV light for 24 hours (equivalent of four days sun exposure).

[3] = Monatin stability in lemon-lime beverage with EMIQ, visible light (Example 4); settings: for % Monatin remaining / Conc. of Monatin: with EMIQ
Protocol: as §1

[4] = dark-colored PET, with EMIQ 7.5 PPM, UV exp. 0 hours
[5] = dark-colored PET, with EMIQ 7.5 PPM, UV exp. 6 hours
[6] = dark-colored PET, with EMIQ 7.5 PPM, UV exp. 12 hours
[7] = dark-colored PET, with EMIQ 7.5 PPM, UV exp. 18 hours
[8] = dark-colored PET, with EMIQ 7.5 PPM, UV exp. 24 hours
[9] = regular PET, no EMIQ, UV exp. 0 hours
[10] = regular PET, no EMIQ, UV exp. 6 hours
[11] = regular PET, no EMIQ, UV exp. 12 hours
[12] = regular PET, no EMIQ, UV exp. 18 hours
[13] = regular PET, no EMIQ, UV exp. 24 hours
[14] = regular PET, with EMIQ 7.5 PPM, UV exp. 0 hours
[15] = regular PET, with EMIQ 7.5 PPM, UV exp. 6 hours
[16] = regular PET, with EMIQ 7.5 PPM, UV exp. 12 hours
[17] = regular PET, with EMIQ 7.5 PPM, UV exp. 18 hours
[18] = regular PET, with EMIQ 7.5 PPM, UV exp. 24 hours
[19] = dark-colored PET, Vis. exp. 0 hours
[20] = dark-colored PET, Vis. exp. 5 hours
[21] = dark-colored PET, Vis. exp. 7 hours
[22] = dark-colored PET, Vis. exp. 23 hours
[23] = dark-colored PET, Vis. exp. 28 hours
[24] = dark-colored PET, Vis. exp. 48 hours
[25] = regular PET, Vis. exp. 23 hours
[26] = regular PET, Vis. exp. 28 hours
[27] = regular PET, Vis. exp. 48 hours

NC(CC(O)(Cc1c[nH]c2ccccc12)C(=O)O)C(=O)O (stereo not drawn) [Monatin, 2-amino-4-carboxy-4-hydroxy-5-(3-indolyl)-pentanoic acid]
% Monatin remaining [1, 4]: 100% | Conc. of Monatin [1, 4]: 30930 ng/mL | % Monatin remaining [1, 5]: 92.4% and 92.3% | Conc. of Monatin [1, 5]: 28590 ng/mL and 28530 ng/mL | % Monatin remaining [1, 6]: 90.7% and 90.9% | Conc. of Monatin [1, 6]: 28050 ng/mL and 28100 ng/mL | % Monatin remaining [1, 7]: 90.7% and 90.5% | Conc. of Monatin [1, 7]: 28040 ng/mL and 28000 ng/mL | % Monatin remaining [1, 8]: 89.0% and 89.3% | Conc. of Monatin [1, 8]: 27510 ng/mL and 27620 ng/mL | % Monatin remaining ([1]; dark-colored PET, with EMIQ 7.5 PPM, UV exp. 24 hours, listed as monatin): approximately 89% | % Monatin remaining [1, 9]: 100% | Conc. of Monatin [1, 9]: 30760 ng/mL and 30790 ng/mL | % Monatin remaining [1, 10]: 68.6% | Conc. of Monatin [1, 10]: 21130 ng/mL and 21110 ng/mL | % Monatin remaining [1, 11]: 9.4% and 9.3% | Conc. of Monatin [1, 11]: 2890 ng/mL and 2870 ng/mL | % Monatin remaining [1, 12]: 1.7% and 1.6% | Conc. of Monatin [1, 12]: 540 ng/mL and 510 ng/mL | % Monatin remaining [1, 13]: 1.4% | Conc. of Monatin [1, 13]: 430 ng/mL and 440 ng/mL | % Monatin remaining [1, 14]: 100% | Conc. of Monatin [1, 14]: 30930 ng/mL | % Monatin remaining [1, 15]: 83.1% and 82.9% | Conc. of Monatin [1, 15]: 25710 ng/mL and 25620 ng/mL | % Monatin remaining [1, 16]: 69.3% | Conc. of Monatin [1, 16]: 21420 ng/mL and 21440 ng/mL | % Monatin remaining [1, 17]: 52.0% and 51.7% | Conc. of Monatin [1, 17]: 16070 ng/mL and 15990 ng/mL | % Monatin remaining [1, 18]: 34.9% and 34.8% | Conc. of Monatin [1, 18]: 10800 ng/mL and 10760 ng/mL | Odor analysis ([2]; Dark-colored PET bottle, UV light 24 hours): − and + | Odor analysis ([2]; Dark-colored PET bottle, visible light three days): − and + | Odor analysis ([2]; PET with UV barrier, UV light 24 hours): − and + | Odor analysis ([2]; PET with UV barrier, visible light three days): + | Odor analysis ([2]; Regular PET, UV light 24 hours): − and + | Odor analysis ([2]; Regular PET, visible light three days): + | odor change after UV exposure ([2]; samples in the dark-colored PET bottles): no or minimal odor change | monatin remained ([3]; ambient indoor laboratory lighting for 72 hours, both clear and dark PET bottles containing the EMIQ polyphenol): over 90% | % Monatin remaining [3, 19]: 100% | Conc. of Monatin [3, 19]: 30930 ng/mL | % Monatin remaining [3, 20]: 97.5% | Conc. of Monatin [3, 20]: 30160 ng/mL | % Monatin remaining [3, 21]: 96.4% and 96.2% | Conc. of Monatin [3, 21]: 29810 ng/mL and 29760 ng/mL | % Monatin remaining [3, 22]: 93.3% and 93.1% | Conc. of Monatin [3, 22]: 28870 ng/mL and 28790 ng/mL | % Monatin remaining [3, 23]: 94.5% | Conc. of Monatin [3, 23]: 29220 ng/mL | % Monatin remaining [3, 24]: 92.1% and 92.4% | Conc. of Monatin [3, 24]: 28490 ng/mL and 28590 ng/mL | % Monatin remaining ([3]; regular PET, Vis. exp. 0 hours): 100% | Conc. of Monatin ([3]; regular PET, Vis. exp. 0 hours): 30930 ng/mL | % Monatin remaining ([3]; regular PET, Vis. exp. 5 hours): 99.0% and 98.6% | Conc. of Monatin ([3]; regular PET, Vis. exp. 5 hours): 30620 ng/mL and 30510 ng/mL | % Monatin remaining ([3]; regular PET, Vis. exp. 7 hours): 97.2% and 97.4% | Conc. of Monatin ([3]; regular PET, Vis. exp. 7 hours): 30060 ng/mL and 30120 ng/mL | % Monatin remaining [3, 25]: 94.1% | Conc. of Monatin [3, 25]: 29100 ng/mL | % Monatin remaining [3, 26]: 94.7% and 94.8% | Conc. of Monatin [3, 26]: 29270 ng/mL and 29320 ng/mL | % Monatin remaining [3, 27]: 92.7% and 92.5% | Conc. of Monatin [3, 27]: 28680 ng/mL and 28610 ng/mL

— US20120282377A1, “Methods and Formulations for Inhibiting Degradation of Photosensitive Sweeteners and Sweetener Enhancers” (priority 2011, published 2012)
